This passage reports Emax results from article PMC8897147 (Acta Pharmaceutica Sinica. B, 2021).

One assay addresses CLR (Homo sapiens, UniProt Q16602). Kind of assay: cAMP accumulation. Particulars: COS-7.
In assay [1] the target is T1, CLR/RAMP3 (Homo sapiens, UniProt O60896+Q16602). Briefly: β-Arrestin2 recruitment. Particulars: COS-7.
In assay [2] the target is T1, CLR/RAMP3. Kind of assay: β-Arrestin1 recruitment. To be noted: COS-7.
The subject of assay [3] is SCTR. Kind of assay: Gαq activation. To be noted: HEK293A, % of max, receptor only, mean ± SEM n≥3.
For assay [4], the system named is SCTR. Kind of assay: cAMP accumulation. Particulars: COS-7; vector (no RAMP); % of max, receptor only; mean ± SEM n≥3. For orientation: Changes in cAMP serve as a functional read-out for many G protein-coupled receptors.
The test system of assay [5] is SCTR. Briefly: β-Arrestin2 recruitment. To be noted: COS-7, % of max, receptor only, mean ± SEM n≥3. A general note: Recruitment of arrestin is a read-out of receptor activation apart from second messengers.
Assay [6] relates to SCTR. Kind of assay: β-Arrestin1 recruitment. Particulars: COS-7, % of max, receptor only, mean ± SEM n≥3.

T1 sequence (Q16602 23-461): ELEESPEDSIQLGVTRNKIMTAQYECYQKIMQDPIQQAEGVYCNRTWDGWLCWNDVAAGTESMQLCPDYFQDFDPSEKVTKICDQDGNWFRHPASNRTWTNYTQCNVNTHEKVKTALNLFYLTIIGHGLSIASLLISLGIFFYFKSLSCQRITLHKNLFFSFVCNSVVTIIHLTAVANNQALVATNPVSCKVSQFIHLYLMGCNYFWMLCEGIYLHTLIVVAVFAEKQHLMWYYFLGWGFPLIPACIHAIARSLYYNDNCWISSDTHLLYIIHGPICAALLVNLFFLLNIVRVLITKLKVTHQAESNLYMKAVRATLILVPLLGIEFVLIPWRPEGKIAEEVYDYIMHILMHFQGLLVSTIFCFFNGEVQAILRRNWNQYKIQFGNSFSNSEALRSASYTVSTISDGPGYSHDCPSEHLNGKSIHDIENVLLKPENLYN
T1 sequence (O60896 24-148): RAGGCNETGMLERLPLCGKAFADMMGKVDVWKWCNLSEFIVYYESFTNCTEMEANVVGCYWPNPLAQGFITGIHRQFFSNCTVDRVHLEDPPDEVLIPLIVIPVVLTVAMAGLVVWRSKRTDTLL
CLR, sequence (Q16602 23-461): as the sequence (Q16602 23-461) above

In general, Emax refers to the size of the effect at its maximum, as opposed to the concentration needed. With `CC[C@H](C)[C@H](NC(=O)[C@H](CCC(N)=O)NC(=O)[C@H](Cc1c[nH]cn1)NC(=O)[C@H](C)NC(=O)[C@H](CC(C)C)NC(=O)[C@H](CCCCN)NC(=O)[C@H](CCC(N)=O)NC(=O)[C@@H](NC(=O)[C@@H](NC(=O)[C@@H]1CSSC[C@H](NC(=O)CNC(=O)[C@H](Cc2ccccc2)NC(=O)[C@H](CO)NC(=O)[C@H](CCCNC(=N)N)NC(=O)[C@H](CC(C)C)NC(=O)CNC(=O)[C@H](CCC(N)=O)NC(=O)[C@H](Cc2ccccc2)NC(=O)[C@H](CC(N)=O)NC(=O)[C@H](CC(N)=O)NC(=O)[C@H](CCSC)NC(=O)[C@H](CO)NC(=O)[C@H](CCC(N)=O)NC(=O)[C@H](CCCNC(=N)N)NC(=O)[C@@H](N)Cc2ccc(O)cc2)C(=O)N[C@@H](CCCNC(=N)N)C(=O)N[C@@H](Cc2ccccc2)C(=O)NCC(=O)N[C@@H]([C@@H](C)O)C(=O)N1)[C@@H](C)O)C(C)C)C(=O)N[C@@H](Cc1ccc(O)cc1)C(=O)N[C@@H](CCC(N)=O)C(=O)N[C@@H](Cc1ccccc1)C(=O)N[C@H](C(=O)N[C@@H](CC(=O)O)C(=O)N[C@@H](CCCCN)C(=O)N[C@@H](CC(=O)O)C(=O)N[C@@H](CCCCN)C(=O)N[C@@H](CC(=O)O)C(=O)N[C@@H](CC(N)=O)C(=O)N[C@H](C(=O)N[C@@H](C)C(=O)N1CCC[C@H]1C(=O)N[C@@H](CCCNC(=N)N)C(=O)N[C@@H](CO)C(=O)N[C@@H](CCCCN)C(=O)N[C@H](C(=O)N[C@@H](CO)C(=O)N1CCC[C@H]1C(=O)N[C@@H](CCC(N)=O)C(=O)NCC(=O)N[C@@H](Cc1ccc(O)cc1)C(N)=O)[C@@H](C)CC)C(C)C)[C@@H](C)O` [Adrenomedullin, adrenomedullin], the Emax on CLR was found to be 46.3 ± 2.9%; on CLR/RAMP3 [1] it was 58.4 ± 10.9%; at CLR/RAMP3 [2], 17.9 ± 11.7%.
Regarding secretin, the Emax in the assay with SCTR [3] (RAMP1) is on record as 127.7 ± 13.5%; in the assay with SCTR [3] (RAMP3), 97.8 ± 21.1%; in the assay with SCTR [3] (vector (no RAMP)), 100 ± 14.1%; with SCTR [4] it was 100 ± 1%; with SCTR [5] (RAMP1) it was 81 ± 6.2%; in the assay with SCTR [5] (RAMP3), 67 ± 4.2∗∗ %. Besides, the Emax in the assay with SCTR [5] (vector (no RAMP)) is 100 ± 4%; in the assay with SCTR [6] (RAMP1), 91.8 ± 3.6%; in the assay on SCTR [6] (RAMP3), 69.1 ± 4.9∗∗ %; with SCTR [6] (vector (no RAMP)), 100 ± 5.6%.
